From patent US20110212986A1, “ANTI-FLAVIVIRUS THERAPEUTIC” (priority 2008, published 2011)
Entries after “also recorded” stand apart in the source; their conditions may differ.

Legend:
[1] = test system: WNV (epidemic strain 3356); test: microbe, parasite or virus in culture; format: cell-based; conditions: West Nile virus, Vero, 42 h
in vitro = conditions: African green monkey
[2] = test system: G6871A mutant virus (WNV); format: cell-based; conditions: Vero cells, 0.1 MOI
WNV NTPase = WNV NTPase (West Nile virus, UniProt Q9Q6P4); test: Enzyme assay, recombinant WNV NTPase; conditions: concentrations up to 100 μM
WNV (WT and G6871A MT) = format: cell-based; conditions: 1.2 μM; Vero cells, MOI 5; each time point
HIV-1 = conditions: at a noncytotoxic concentration; Szlavik et al., 2004; cited from earlier work
WNV protease (with NS2B) = WNV protease (with NS2B) (West Nile virus, UniProt Q9Q6P4); test: Enzyme assay, recombinant WNV protease; conditions: concentrations up to 100 μM
[3] = test system: Vero cells containing DENV-1 replicon (Rluc-Neo-Rep); format: cell-based, dengue virus; conditions: 1.5-1 μM for 24 h or 48 h
[4] = test system: G6871A mutant WNV replicon (Rluc2A-Rep); format: cell-based, West Nile virus; conditions: 1.5 μM; BHK-21 cells
[5] = test system: Vero cells containing WNV replicon (Rluc-Neo-Rep); format: cell-based, West Nile virus; conditions: 1.5-1 μM for 24 h or 48 h
poliovirus = conditions: cited from earlier work
WNV MTase = WNV MTase (West Nile virus, UniProt Q9Q6P4); test: Enzyme assay, recombinant WNV MTase; conditions: concentrations up to 100 μM
WNV = test: Time-of-addition analysis in WNV infection; format: cell-based, West Nile virus; conditions: 1.2 μM; Vero cells, WNV MOI 10; titers at 20 h post-infection
WEEV (strain Cova 746) = format: cell-based, Western equine encephalitis virus
DENV-1 VLP = format: cell-based, dengue virus; conditions: 1.5 μM
[6] = test system: Rluc2A-Rep of WNV in BHK-21 cells; format: cell-based, West Nile virus
[7] = test system: lycorine-resistant WNV (P12 viruses); test: Resistance assay, lycorine-resistant P12 WNV; format: cell-based, West Nile virus; conditions: 1.2 μM
[8] = test system: Rluc2A-Rep of DENV-1 in BHK-21 cells; format: cell-based, dengue virus
[9] = test system: VSV (New Jersey serotype); format: cell-based, vesicular stomatitis virus
WNV RdRp = WNV RdRp (West Nile virus, UniProt Q9Q6P4); test: Enzyme assay, recombinant WNV RdRp; conditions: concentrations up to 100 μM
WNV VLP = format: cell-based, West Nile virus; conditions: 1.5 μM

Sequence of WNV RdRp (Q9Q6P4 2529-3433): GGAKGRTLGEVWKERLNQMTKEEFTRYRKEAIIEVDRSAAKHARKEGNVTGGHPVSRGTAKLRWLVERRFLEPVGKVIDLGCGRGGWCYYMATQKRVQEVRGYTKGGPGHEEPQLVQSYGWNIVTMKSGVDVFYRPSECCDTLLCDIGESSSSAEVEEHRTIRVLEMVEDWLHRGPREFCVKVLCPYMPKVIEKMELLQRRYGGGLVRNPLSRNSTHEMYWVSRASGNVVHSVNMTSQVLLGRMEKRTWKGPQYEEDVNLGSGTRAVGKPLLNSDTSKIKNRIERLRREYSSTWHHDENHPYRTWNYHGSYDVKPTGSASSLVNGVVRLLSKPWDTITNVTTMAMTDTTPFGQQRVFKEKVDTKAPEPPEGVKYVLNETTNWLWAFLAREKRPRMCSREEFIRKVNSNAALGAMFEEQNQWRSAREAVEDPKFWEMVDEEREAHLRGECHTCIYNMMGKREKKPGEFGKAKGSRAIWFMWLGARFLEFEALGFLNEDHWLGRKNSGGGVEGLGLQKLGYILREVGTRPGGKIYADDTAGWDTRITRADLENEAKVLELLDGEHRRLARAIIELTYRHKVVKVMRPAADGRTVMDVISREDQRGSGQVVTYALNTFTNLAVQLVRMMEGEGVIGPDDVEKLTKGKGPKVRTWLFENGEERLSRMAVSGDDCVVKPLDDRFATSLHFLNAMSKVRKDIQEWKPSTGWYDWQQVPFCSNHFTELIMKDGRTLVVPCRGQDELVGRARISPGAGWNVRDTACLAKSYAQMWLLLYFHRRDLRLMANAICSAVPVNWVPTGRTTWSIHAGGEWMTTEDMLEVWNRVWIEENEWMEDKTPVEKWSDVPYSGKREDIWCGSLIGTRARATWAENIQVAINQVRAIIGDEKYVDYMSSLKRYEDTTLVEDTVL
Sequence of WNV MTase (Q9Q6P4 2529-3433): as above
Sequence of WNV NTPase (Q9Q6P4 1506-2124): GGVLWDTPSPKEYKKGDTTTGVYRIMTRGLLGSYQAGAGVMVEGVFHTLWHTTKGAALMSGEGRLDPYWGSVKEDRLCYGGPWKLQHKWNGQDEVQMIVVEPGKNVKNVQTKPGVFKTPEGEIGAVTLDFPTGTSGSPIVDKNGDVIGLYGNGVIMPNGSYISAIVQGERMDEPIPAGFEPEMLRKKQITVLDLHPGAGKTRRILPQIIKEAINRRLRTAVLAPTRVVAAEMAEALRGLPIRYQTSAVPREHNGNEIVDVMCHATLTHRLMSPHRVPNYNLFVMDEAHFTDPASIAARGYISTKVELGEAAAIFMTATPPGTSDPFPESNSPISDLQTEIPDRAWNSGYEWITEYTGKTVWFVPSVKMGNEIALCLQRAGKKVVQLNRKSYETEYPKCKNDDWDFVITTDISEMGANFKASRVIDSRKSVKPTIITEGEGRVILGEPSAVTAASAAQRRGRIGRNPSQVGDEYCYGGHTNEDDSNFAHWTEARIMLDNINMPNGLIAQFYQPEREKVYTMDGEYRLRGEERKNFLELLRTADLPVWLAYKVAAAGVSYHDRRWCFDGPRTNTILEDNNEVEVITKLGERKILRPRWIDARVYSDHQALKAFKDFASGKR
Sequence of WNV protease (with NS2B) (Q9Q6P4 1506-2124): as above
Sequence of WNV protease (with NS2B) (Q9Q6P4 1375-1505): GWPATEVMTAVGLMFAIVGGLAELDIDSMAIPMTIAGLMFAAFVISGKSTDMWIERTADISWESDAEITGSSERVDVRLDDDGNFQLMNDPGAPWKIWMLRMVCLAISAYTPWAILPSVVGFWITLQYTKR

CC(C)(C)[Si](C)(C)O[C@H]1C=C2CCN3Cc4cc5c(cc4[C@H]([C@@H]1O)[C@@H]23)OCO5 [Compound 1198]
EC50 [1]: 0.73 µM

CC(=O)O[C@H]1[C@H]2c3cc4c(cc3C(=O)N3CCC(=C[C@@H]1OC(C)=O)[C@H]23)OCO4 [Compound 1197]
EC50 [1]: ≥ 300 µM | CC50 (Vero cells; African green monkey): > 300 µM

CC(=O)O[C@@H]1C(=O)C=C2CCN3Cc4cc5c(cc4[C@H]1[C@@H]23)OCO5 [Compound 1200]
CC50 (in vitro): > 300 µM | resistance of G6871A mutant virus to the compound [2]: resistant | EC50 [1]: 0.19 µM | CC50 (Vero cells; African green monkey): > 300 µM

CC(=O)O[C@H]1[C@H]2c3cc4c(cc3CN3CCC(=C[C@@H]1O)[C@H]23)OCO4 [Compound 1181]
EC50 [1]: 0.86 µM

CC(=O)O[C@H]1[C@H]2c3cc4c(cc3CN(C(=O)OCC(Cl)(Cl)Cl)[C@@H]2C(CCCl)=C[C@@H]1OC(C)=O)OCO4 [Compound 1193]
EC50 [1]: > 300 µM | CC50 (Vero cells; African green monkey): > 300 µM

O[C@H]1[C@H]2c3cc4c(cc3CN3CCC(=C[C@@H]1O)[C@H]23)OCO4 [Lycorine]
suppression of WNV NTPase activity (WNV NTPase): None of the enzyme activities were suppressed | viral protein expression (NS1, NS3, NS5), western blotting (WNV (WT and G6871A MT)): suppressed viral protein expression | inhibition of HIV-1 (HIV-1): does not inhibit | resistance of G6871A mutant virus to the compound [2]: showed a resistance level close to those of the P12 viruses | suppression of WNV protease (with NS2B) activity (WNV protease (with NS2B)): None of the enzyme activities were suppressed | EC50 [1]: 0.23 µM | luciferase activities in DENV Rluc-Neo-Rep cells [3]: reduced luciferase activities | suppression of reporting signals at 2, 4, and 6 h p.t., G6871A mutant replicon [4]: ≤ 30% | luciferase activities in WNV Rluc-Neo-Rep cells [5]: reduced luciferase activities | suppression of poliovirus viral translation (poliovirus): ~90% | suppression of WNV MTase activity (WNV MTase): None of the enzyme activities were suppressed | antiviral activity when added after 10 h post-infection (WNV): completely lost its antiviral activity; also recorded: completely lost the inhibitory activity | inhibition of WEEV (viral titer) (WEEV (strain Cova 746)): did not inhibit; also recorded: suppressed titers of neither WEEV nor VSV; also recorded: does not inhibit | reduction of luciferase signals, DENV-1 VLP-infected cells (DENV-1 VLP): 1,200 fold | suppression of early luciferase signals (viral translation), WNV replicon ([6]; 1.5 μM, 2, 4, and 6 h p.t.): ≤ 30% | reduction of late luciferase signals (RNA synthesis), WNV replicon ([6]; 1.5 μM, 24, 30 and 48 h p.t.): > 99% | increase of resistance of the P12 viruses over that of the WT [7]: approximately 100 fold | reduction of viral titers of P12 virus-infected cells ([7]; Vero cells, MOI 0.1, 42 h p.i.): approximately 10 fold | suppression of early luciferase signals (viral translation), DENV-1 replicon ([8]; 1.5 μM, 2, 4, and 6 h p.t.): ≤ 30% | reduction of late luciferase signals (RNA synthesis), DENV-1 replicon ([8]; 1.5 μM, 24, 30 and 48 h p.t.): > 99% | inhibition of VSV (viral titer) [9]: did not inhibit; also recorded: suppressed titers of neither WEEV nor VSV; also recorded: does not inhibit | suppression of WNV RdRp activity (WNV RdRp): None of the enzyme activities were suppressed | reduction of luciferase signals, WNV VLP-infected cells (WNV VLP): 1,400 fold | CC50 (Vero cells; African green monkey): 24 µM | cell viability (Vero cells; African green monkey): > 90% | decrease of viability of Vero cells (Vero cells; at 31 μM): ~50%

CC(=O)O[C@H]1[C@H]2c3cc4c(cc3CN3CCC(=C[C@@H]1OC(C)=O)[C@H]23)OCO4 [Compound 1180]
EC50 [1]: 1.49 µM

CC(=O)OCCC1=C[C@H](OC(C)=O)[C@@H](OC(C)=O)[C@H]2c3cc4c(cc3CN(C(=O)OCC(Cl)(Cl)Cl)[C@H]12)OCO4 [Compound 1194]
EC50 [1]: 72 µM | CC50 (Vero cells; African green monkey): > 300 µM
